Source: ChEMBL document CHEMBL5375960, “Design and Synthesis of Novel Cereblon Binders for Use in Targeted Protein Degradation” (J Med Chem, 2023)
Activity calls are given as the source filed them. No cut-off for these calls is given here.

Columns and labels:
[1] = target: Zinc finger protein Aiolos (Homo sapiens, UniProt Q9UKT9); assay: Induction of ePL tagged Aiolos degradation in human DF15 cells incubated for 4 hrs by luminescence based assay; type: cell-based
[2] = target: Protein cereblon/DNA damage-binding protein 1 (Homo sapiens, UniProt Q96SW2); assay: Displacement of Cy5-labeled tracer CC0782985 from 6His-tagged CRBN (1 to 442 residues)/DDB1 (1 to 1140 residues) (unknown origin) incubated for 20 mins by TR-FRET assay; type: protein assay
[3] = target: T1, Eukaryotic peptide chain release factor GTP-binding subunit ERF3A (Homo sapiens, UniProt P15170); assay: Induction of ePL tagged GSPT1 degradation in human DF15 cells incubated for 20 hrs by luminescence based assay; type: cell-based
[4] = target: T1, Eukaryotic peptide chain release factor GTP-binding subunit ERF3A; assay: Induction of ePL tagged GSPT1 degradation in human DF15 cells assessed as remaining activity incubated for 20 hrs by luminescence based assay relative to control; type: cell-based; design: concentration or dose not given beside the values
[5] = target: T2, Androgen receptor (Homo sapiens) (UniProt P10275); assay: Induction of androgen receptor degradation in human VCaP cells incubated for 24 hrs by ELISA; type: cell-based
T2 sequence (whole entry): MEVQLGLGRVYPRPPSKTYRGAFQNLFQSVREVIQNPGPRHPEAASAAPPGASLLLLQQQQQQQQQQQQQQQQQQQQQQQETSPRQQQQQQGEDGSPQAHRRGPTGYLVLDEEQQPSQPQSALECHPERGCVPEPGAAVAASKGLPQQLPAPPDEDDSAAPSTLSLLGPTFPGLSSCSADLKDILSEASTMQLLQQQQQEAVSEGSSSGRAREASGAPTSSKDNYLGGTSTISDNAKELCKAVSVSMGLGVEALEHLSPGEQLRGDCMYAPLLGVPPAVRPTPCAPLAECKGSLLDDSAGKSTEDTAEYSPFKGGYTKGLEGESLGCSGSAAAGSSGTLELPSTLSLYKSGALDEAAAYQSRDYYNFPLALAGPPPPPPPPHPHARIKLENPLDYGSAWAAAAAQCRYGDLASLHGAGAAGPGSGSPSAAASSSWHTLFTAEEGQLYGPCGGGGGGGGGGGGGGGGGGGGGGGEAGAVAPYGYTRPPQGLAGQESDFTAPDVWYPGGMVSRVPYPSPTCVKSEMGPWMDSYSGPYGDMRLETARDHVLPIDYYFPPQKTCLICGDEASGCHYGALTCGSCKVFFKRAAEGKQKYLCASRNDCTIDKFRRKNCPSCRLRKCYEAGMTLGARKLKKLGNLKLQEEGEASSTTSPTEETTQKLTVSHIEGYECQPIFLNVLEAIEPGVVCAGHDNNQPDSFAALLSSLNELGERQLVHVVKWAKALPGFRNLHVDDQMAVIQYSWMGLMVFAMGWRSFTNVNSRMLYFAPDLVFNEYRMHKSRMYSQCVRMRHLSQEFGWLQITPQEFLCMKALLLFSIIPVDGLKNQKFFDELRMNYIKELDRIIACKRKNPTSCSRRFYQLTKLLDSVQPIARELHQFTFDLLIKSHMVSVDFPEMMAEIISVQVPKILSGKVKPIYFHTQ

[6] = target: T1, Eukaryotic peptide chain release factor GTP-binding subunit ERF3A; assay: Induction of ePL tagged GSPT1 degradation in human DF15 cells incubated for 20 hrs by luminescence based assay relative to control; type: cell-based

Row | SMILES | EC50 [1] [µM] | EC50 [3] [µM] | Activity [4] [%] | Activity [5] | Activity [6] [%] | IC50 [2] [µM]
1 | O=C1CCN(c2ccccc2)C(=O)N1 | > 10 |  |  |  |  | 
2 | O=C1CCC(c2ccccc2)C(=O)N1 (stereo unspecified) | > 10 |  |  |  |  | 
3 | O=C1CCC(Nc2ccccc2)C(=O)N1 (stereo unspecified) | > 10 |  |  |  |  | 5.6
4 | Cc1ccc(NC(=O)NCc2cccc(C(=O)NC3CCC(=O)NC3=O)c2)cc1Cl (stereo unspecified) | > 10 | 0.021 | 3.1 |  |  | 3.8
5 | O=C1CCC(c2ccc(OCc3ccc(CN4CCOCC4)cc3)cc2)C(=O)N1 (stereo unspecified) | > 10 | > 10 | 97.1 |  |  | 1.9
6 | O=C1CCC(c2cccc(OCc3ccc(CN4CCOCC4)cc3)c2)C(=O)N1 (stereo unspecified) | > 10 | > 10 | 96.6 |  |  | 0.58
7 | Cc1ccc(NC(=O)NCc2cccc(N3CCC(=O)NC3=O)c2)cc1Cl | > 10 | > 10 | 95.2 |  |  | 8.6
8 | Cn1nc(C2CCC(=O)NC2=O)c2cccc(N)c21 (stereo unspecified) | > 10 |  |  |  |  | 0.19
9 | Cc1ccc(NC(=O)NCc2cccc(C3CCC(=O)NC3=O)c2)cc1Cl (stereo unspecified) | > 10 | > 10 | 92.8 |  |  | 1.5
10 | O=C1CCC(NC(=O)c2ccccc2)C(=O)N1 (stereo unspecified) | > 10 |  |  |  |  | 11.1
11 | Nc1ccc(NC2CCC(=O)NC2=O)cc1 (stereo unspecified) | > 10 |  |  |  |  | 12.4
12 | O=C1CCN(c2cccc(OCc3ccc(CN4CCOCC4)cc3)c2)C(=O)N1 | > 10 | > 10 | 94 |  |  | 3.3
13 | Nc1ccc(C2CCC(=O)NC2=O)cc1 (stereo unspecified) | > 10 |  |  | Active |  | 1.2
14 | Cc1ccc(NC(=O)NCc2ccccc2C(=O)NC2CCC(=O)NC2=O)cc1Cl (stereo unspecified) | > 10 | > 10 | 88.4 |  |  | 10.3
15 | Nc1cccc(C2CCC(=O)NC2=O)c1 (stereo unspecified) | > 10 |  |  | Active |  | 2.3
16 | Cc1ccc(NC(=O)NCc2ccc(N3CCC(=O)NC3=O)cc2)cc1Cl | > 10 | > 10 | 93.8 |  |  | 4.7
17 | COc1cccc(C2CCC(=O)NC2=O)c1 (stereo unspecified) | > 10 |  |  |  |  | 1.7
18 | O=c1ccn(-c2ccccc2)c(=O)[nH]1 | > 10 |  |  |  |  | > 100
19 | Nc1ccc(N2CCC(=O)NC2=O)cc1 | > 10 |  |  | inactive |  | 23.6

Now from value to compound, other results behind:

Row | EC50 [1] [µM] | EC50 [3] [µM] | Activity [4] [%] | Activity [5] | Activity [6] [%] | SMILES | IC50 [2] [µM]
20 | > 10 |  |  |  |  | O=C1CCC(Oc2ccccc2)C(=O)N1 (stereo unspecified) | 7
21 | > 10 |  |  |  |  | Nc1cccc2c1cnn2C1CCC(=O)NC1=O (stereo unspecified) | 0.34
22 | > 10 |  |  |  |  | Nc1cccc(N[C@H]2CCC(=O)NC2=O)c1 | 1.4
23 | > 10 |  |  |  |  | Cn1nc(N2CCC(=O)NC2=O)c2ccc(N)cc21 | 2.3
24 | > 10 |  |  |  |  | O=C1CCC(n2ncc3ccccc32)C(=O)N1 (stereo unspecified) | 
25 | > 10 |  |  |  |  | Nc1cccc(N[C@@H]2CCC(=O)NC2=O)c1 | 2.9
26 | > 10 |  |  |  |  | Cn1nc(C2CCC(=O)NC2=O)c2ccc(N)cc21 (stereo unspecified) | 0.1
27 | > 10 | > 10 | 97.1 |  |  | O=C1CCN(c2ccc(OCc3ccc(CN4CCOCC4)cc3)cc2)C(=O)N1 | 8
28 | 0.07 | > 10 | 99 |  |  | O=C1CCC(n2cnc3ccc(OCc4ccc(CN5CCOCC5)cc4)cc32)C(=O)N1 (stereo unspecified) | 0.28
29 | > 10 |  |  | inactive |  | Nc1cccc(N2CCC(=O)NC2=O)c1 | 11.7
30 | > 10 | 0.1 | 33.7 |  |  | Cc1ccc(NC(=O)NCc2ccc(C(=O)NC3CCC(=O)NC3=O)cc2)cc1Cl (stereo unspecified) | 3.4
31 | 0.001 | > 10 | 88.8 |  |  | O=C1CC[C@H](N2Cc3c(OCc4ccc(CN5CCOCC5)cc4)cccc3C2=O)C(=O)N1 [IBERDOMIDE] | 
32 | > 10 |  |  |  |  | Nc1cccc(NC2CCC(=O)NC2=O)c1 (stereo unspecified) | 3.7
33 | > 10 |  |  |  |  | Cn1nc(N2CCC(=O)NC2=O)c2cccc(N)c21 | 12.2
34 | 0.607 |  |  |  |  | Nc1ccc(C(=O)NC2CCC(=O)NC2=O)cc1 (stereo unspecified) | 5.5
35 | > 10 |  |  |  |  | Nc1cccc2c1ncn2C1CCC(=O)NC1=O (stereo unspecified) | 0.81
36 | > 10 |  |  |  |  | Cn1nc(N2CCC(=O)NC2=O)c2ccccc21 | 6.7
37 | > 10 |  |  |  |  | Nc1cccc(C(=O)NC2CCC(=O)NC2=O)c1 (stereo unspecified) | 25.8
38 | > 10 | 0.07 | 73.4 |  | 26 | Cc1ccc(NC(=O)NCc2ccc(C3CCC(=O)NC3=O)cc2)cc1Cl (stereo unspecified) | 0.29
39 | > 10 |  |  |  |  | COc1ccc(C2CCC(=O)NC2=O)cc1 (stereo unspecified) | 2.2
40 | > 10 |  |  |  |  | Cn1nc(C2CCC(=O)NC2=O)c2ccccc21 (stereo unspecified) | 0.15
41 | 0.005 | 0.0003 | 3.9 |  |  | Cc1ccc(NC(=O)NCc2ccc3c(c2)CN(C2CCC(=O)NC2=O)C3=O)cc1Cl (stereo unspecified) | 0.03
42 | 0.142 |  |  |  |  | Nc1ccc2ncn(C3CCC(=O)NC3=O)c2c1 (stereo unspecified) | 0.74
43 | 0.02 |  |  |  |  | Nc1cccc2c1C(=O)N(C1CCC(=O)NC1=O)C2=O (stereo unspecified) [POMALIDOMIDE] | 
44 | 0.312 |  |  |  |  | Nc1ccc2c(c1)ncn2C1CCC(=O)NC1=O (stereo unspecified) | 0.59
